Laboratory results as given in patent US10928381B2, “In vitro methods of monitoring autophagy in a human cell using a photoconvertable fluorescent protein linked biomarker” (The Regents of the University of Michigan, priority 2018, dated 2021).

Tests used:
[1] = test system: Dendra2-LC3 HEK cells; assay: Native (green, GFP) Dendra2-LC3 intensity and puncta, phase I primary screen readout (T15/T0); type: cell-based, human; details: for Phase I result, normalized GFP intensity (T15/T0): 15 h
Description: Conventional methods for estimating autophagy flux rely upon the assessment of LC3 or other autophagy substrates by Western blotting or immunocytochemistry (Ref. 27; herein incorporated by reference in its entirety); by their very nature, these techniques are static and limited to dead cells. Fluorescence-based methods that use tagged substrates allow visualization of autophagy within living cells, but typically require the overexpression of autophagy target proteins that may disrupt the very process they are intended to measure. To assess autophagy in human cells without compromising or interfering with the pathway, experiments were conducted during development of embodiments herein utilizing CRISPR/Cas9 genome editing (Refs. 29-30; herein incorporated by reference in their entireties) to insert the Dendra2 open reading frame into the MAP1LC3B locus (encoding LC3) of HEK cells (FIG. 2a). A mutated, nickase version of Cas9 (Cas9n) was used that is incapable of making double-stranded DNA breaks, thereby minimizing the risk of non-homologous end joining and unwanted insertions or deletions (Refs. 29, 35; herein incorporated by reference in their entireties). Two separate single guide RNAs (sgRNAs) were designed that recognize sequences just upstream and downstream of the MAP1LC3B start codon, and a homology directed repair (HDR) vector encoding the Dendra2 open reading frame flanked by 400 bp of homologous sequence surrounding the MAP1LC3B start codon (FIG. 2a). Following expression of the sgRNAs, Cas9n and the HDR in HEK cells, colonies were selected based upon green fluorescence and passaged to homogeneity (FIG. 2b). The insertion site was confirmed by DNA sequencing, PCR, and immunocytochemistry using antibodies that recognize LC3. Providing further validation of the insertion, transfection with siRNA directed against the MAP1LC3B locus elicited a significant reduction in Dendra2-LC3 protein levels as measured by western blotting and native GFP fluorescence (FIG. 2c, d). In untreated cells, Dendra2-LC3 fluorescence appears diffuse, as expected (FIG. 3a). […] Second, autophagy induction in these cells is accompanied not only by the formation of puncta, but also by relative decreases in diffuse Dendra2-LC3 fluorescence, as indicated by the model in FIG. 1.
(§1) For these studies the potent mTOR inhibitor torin1 (Ref. 36; herein incorporated by reference in its entirety) was selected as a positive control for autophagy induction, and the vacuolar ATPase inhibitor bafilomycin-A1 (Ref. 37; herein incorporated by reference in its entirety) as a positive control for autophagy inhibition. In each case, DMSO served as a vehicle (negative) control. Dendra2-LC3 was photoconverted immediately prior to drug application, and the fluorescence intensity in the green (GFP) and red (RFP) channels was measured at regular intervals for 15 h.
The Z′ value for the effect of torin1 on the normalized GFP intensity, calculated as a ratio of GFP intensity at 15 h to that at 0 h (T15/T0), was 0.63 when the assay was conducted in a 96-well format in our laboratory, and 0.56 when conducted in a 384-well format at the Center for Chemical Genomics (CCG, FIG. 3e), indicative of a robust screening platform (Ref. 38; herein incorporated by reference in its entirety). […] The false negative rate was near zero, ensuring a highly sensitive assay.
The possibility that cell death and toxicity mimics the reduction in GFP intensity that would otherwise denote autophagy induction was also addressed. To avoid confounding from toxicity, the area occupied by cells in each image is calculated using ImageJ software and used as a proxy for cell number; since all wells received the same number of cells, >25% reductions in the area occupied by cells at the end of the experiment indicates toxicity. The formation of Dendra2-LC3 puncta in each condition is scored simultaneously using the ‘analyze particles’ function in ImageJ. […]

[2] = test system: Dendra2-LC3 HEK cells; assay: Optical pulse labeling: time-dependent decay of photoconverted (red, RFP/TRITC) Dendra2-LC3 as measure of autophagic flux; type: cell-based, human; parameters: key to Hit class in screen of Enzo Autophagy compound library (9H RFP/0H RFP): enhancer: [Sample9H RFP/OH RFP]<[DMSO9H RFP/OH RFP−3SDDMSO]; inhibitor: [Sample9H RFP/OH RFP]>[DMSO9H RFP/OH RFP 3SDDMSO]; details: for Hit class in screen of Enzo Autophagy compound library (9H RFP/0H RFP): 10 uM, 9 hours after drug addition; for Phase II result, Dendra2-LC3 degradation kinetics: in comparison to DMSO
Experimental: FIGS. 8A-E. Time dependent decay of Dendra2-LC3 as an assay of autophagic flux. (FIG. 8A) Dendra2-LC3 reporter cells were imaged prior to photoconversion to measure background TRITC intensity. Immediately following photoconversion with a 5 second pulse of […] light, cells were treated with DMSO, 1 uM Torin1, or 10 nM Bafilomycin-A1 and then were subsequently imaged at the indicated time points. Images are psuedocolored to better highlight intensity differences. (FIGS. 8B-E) Time dependent changes in photoconverted Dendra2-LC3 fluorescence in the TRITC (FIGS. 8B, D) and GFP (FIGS. 8C, E) channels. Gray boxes represent the pre and post-photoconversion time points. TRITC intensity values are normalized, setting the background intensity prior to conversion to 0 and the post-conversion value to 1. GFP values are normalized to the pre-conversion intensity. Error bars represent the SEM from three replicate experiments. […] (FIG. 8C) Following photoconversion there is a 40% drop in GFP intensity. As new Dendra2-LC3 is synthesized, GFP levels return to pre-photoconversion levels over the span of 13.5 hours. […] Cells were transfected with 20 nM ATG5 siRNA two days prior to imaging.
FIG. 9A-C. Evaluating the efficacy of known autophagy modulators. (FIG. 9A) An unbiased screen of the Enzo Autophagy compound library identified several known autophagy compounds as hits providing construct validity to the assay. Rapamycin, NVP-BEZ235 and AKT inhibitor X, were among the compounds appropriately identified as enhancers while Bafilomycin registered as an inhibitor. […] Cells were imaged in RFP to measure background fluorescence, then photoconverted with a 4 second DAPI exposure and immediately imaged again to establish the postconversion intensity. Drugs from the Enzo Autophagy library were added at a concentration of 10 uM via a robotic liquid handler. 9 hours later the cells were imaged again in order to assess the efficacy of the drugs. Hits were defined as follows: enhancer: [Sample9H RFP/OH RFP]<[DMSO9H RFP/OH RFP−3SDDMSO], inhibitor: [Sample9H RFP/OH RFP]>[DMSO9H RFP/OH RFP 3SDDMSO]. […] Imaging of the compound library was repeated in GFP. Intensity values are reported 15 hours after drug treatment. (FIG. 9C) The reduction in Dendra2-LC3 half-life observed upon treatment of autophagic flux enhancers is attenuated with partial knockdown of ATG5. Cells were transfected with 20 nM ATG5 siRNA 2 days prior to imaging. Error bars represent SEM from three replicate experiments.
Experiments were conducted during development of embodiments herein to develop a sensitive method—optical pulse labeling (OPL)—that takes advantage of the photoconvertible fluorescent protein Dendra2 for estimations of autophagic flux in cellulo (Refs 14, 34; herein incorporated by reference in their entireties) (FIG. 1b). […] Dendra2 was fused to LC3, a specific marker of autophagosomes and itself an autophagy substrate (Refs. 27, 31; herein incorporated by reference in their entireties). Following photoconversion, the time-dependent reduction in red LC3-Dendra2 (FIG. 1c) is used to calculate protein half-life, representing an estimate of autophagy flux for individual cells (Refs. 14, 34; herein incorporated by reference in their entireties) Furthermore, because LC3 is degraded as autophagosomes mature, the return to steady-state levels of green Dendra2-LC3 after photoconversion (FIG. 1d) reflects activity within the pathway as a whole. The assay is noninvasive, permitting longitudinal analyses of autophagy kinetics in living cells, and amenable to HTS.
as §1, with “Dendra2-LC3 was photoconverted immediately prior to drug application, and the fluorescence intensity in the green (GFP) and red (RFP) channels was measured at regular intervals for 15 h.” left out

[3] = test system: primary rat cortical neurons overexpressing WT-TDP43-GFP; assay: Survival of primary neurons overexpressing TDP43, automated fluorescence microscopy; type: cell-based; details: 25 nM
[4] = test system: Tandem reporter (RFP-GFP-LC3) HeLa cells; assay: Tandem reporter (RFP-GFP-LC3) assay, % of RFP puncta that are GFP positive; type: cell-based; details: imaged after 12 hours
Experimental: FIG. 13A-E. Validation of novel autophagy inhibitors with an independent measure of autophagic flux. (FIG. 13A) Tandem reporter (RFP-GFP-LC3) HeLa cells treated with the indicated compounds and imaged after 12 hours in RFP (middle panels) GFP (bottom panels). […] Concentrations used correspond to the lowest dose resulting in the maximum degree of colocalization between GFP and RFP puncta as calculated in (B). These are: 3 nM Bafilomycin, 1 uM Quinacrine, 50 uM 245536, and 100 uM of 254522, 45808, 234794, and 237373. (Scale bar: 50 μm) (FIG. 13B) The percentage of RFP positive puncta that are also GFP positive in tandem reporter HeLa cells was analyzed using Cell Profiler. First GFP (1a) and RFP (1b) images of the same field of cells are uploaded into Cell Profiler. Using the GFP images, nuclei are identified (2a-green outlines) and a nuclear mask (2b) is generated. […] Cellular boundries are identified (3a-purple outlines) and a cellular mask is created. […] Only puncta within this mask will be evaluated in subsequent steps. […] (FIG. 13D) Tandem reporter HeLa cells were imaged once prior to drug treatment and then treated with the lowest dose that produced the maximum response as calculated in (FIG. 13C) and imaged immediately after. […] Each point is calculated by taking the mean % of (GFP+/RFP+ puncta)/(RFP+) from 8 technical replicates. […]

Row | SMILES | Phase I result, normalized GFP intensity (T15/T0) ([1]; Prestwick and Enzo collections) | Hit class in screen of Enzo Autophagy compound library (9H RFP/0H RFP) [2] | Phase II result, Dendra2-LC3 degradation kinetics [2] | other results
1 | CCN(CC)CCCCN1c2ccccc2Oc2ccc(Cl)cc21 [AKT inhibitor X] | autophagy inducers | enhancer |  | 
2 | OCCN1CCN(CCCN2c3ccccc3Sc3ccc(C(F)(F)F)cc32)CC1 [Fluphenazine] |  |  |  | Formation of Dendra2-LC3 (LC3-positive) puncta ([1]; FPZ 0.5 μM, torin1 1 μM): elicits the formation of LC3-positive puncta; GFP intensity of native Dendra2-LC3 ([1]; FPZ 0.5 μM, torin1 1 μM, vs DMSO): reduces the steady-state GFP intensity
3 | Cn1c(=O)n(-c2ccc(C(C)(C)C#N)cc2)c2c3cc(-c4cnc5ccccc5c4)ccc3ncc21 [NVP-BEZ235] |  | enhancer |  | Effect on TDP43 toxicity [3]: suppresses toxicity; Hazard ratio, Cox proportional hazards analysis ([3]; p<0.05): 0.89; Rank among autophagy inducers in phase I ([1]; Prestwick and Enzo collections): rank among the most potent inducers
4 | CCN(CC)CCCC(C)Nc1c2ccc(Cl)cc2nc2ccc(OC)cc12 (stereo not drawn) [Quinacrine] |  |  |  | Lowest dose resulting in the maximum degree of colocalization between GFP and RFP puncta [4]: 1 µM
5 | CO[C@H]1C[C@@H]2CC[C@@H](C)[C@@](O)(O2)C(=O)C(=O)N2CCCC[C@H]2C(=O)O[C@H]([C@H](C)C[C@@H]2CC[C@@H](O)[C@H](OC)C2)CC(=O)[C@H](C)/C=C(\C)[C@@H](O)[C@@H](OC)C(=O)[C@H](C)C[C@H](C)/C=C/C=C/C=C/1C [Rapamycin] |  | enhancer |  | 
6 | O=C(CCCCCN1C(=O)c2cccc3cccc(c23)C1=O)NO [Scriptaid] | significant increases in Dendra2-LC3 GFP fluorescence |  | significantly slowed Dendra2-LC3 degradation | 
7 | NC(=O)N1c2ccccc2C=Cc2ccccc21 [carbamazepine] | significant increases in Dendra2-LC3 GFP fluorescence | failure to markedly affect flux | significantly slowed Dendra2-LC3 degradation | 
8 | C[C@@H]1C[C@@H]([C@H](O)CC2CC(=O)NC(=O)C2)C(=O)[C@@H](C)C1 [cycloheximide] | potential autophagy inducers |  | failed to affect Dendra2-LC3 degradation kinetics | 
9 | OC[C@H]1O[C@H](O[C@H]2O[C@H](CO)[C@@H](O)[C@H](O)[C@H]2O)[C@H](O)[C@@H](O)[C@@H]1O [trehalose] |  | failure to markedly affect flux |  | 
